The results in this text go back to article PMC10575921 (Nature Communications, 2023).

Data set [1] relates to human primary hepatocytes. The note with it: primary hepatocyte cytotoxicity.
Data set [2] concerns the target T1, SARS-CoV-2 3CL^pro (Severe acute respiratory syndrome coronavirus 2, UniProt P0DTD1). Kind of data set: biochemical. To be noted: for inhibition at 1 µM: concentration 1000.00 nM; for inhibition at 3.125 µM: concentration 3125.00 nM.
In the next data set the test system is SARS-CoV-2 Delta strain. Nature of the data set: microbe, parasite or virus in culture. The data set is classed as cell-based.
A short description of a further data set: in vitro. The note with it: African green monkey.
For data set [3] the following is noted: buffer, pH 7.4.
The target of data set [4] is T1, SARS-CoV-2 3CL^pro. The data set is classed as biochemical.
[5] abbreviates: 15.63 nM, read-out: inhibition ratio (%).
The mark [6] stands for this setting: 31.25 nM, read-out: inhibition ratio (%).
[7] abbreviates: 500.00 nM, read-out: inhibition ratio (%).
Setting [8] is: Severe acute respiratory syndrome coronavirus 2, Vero C1008, read-out: EC50 (nM) Mean.
[9] abbreviates: concentration 15.63 nM, read-out: inhibition ratio (%).
Setting [10] is: concentration 500.00 nM, read-out: inhibition ratio (%).
Where [11] appears, read: concentration 31.25 nM, read-out: inhibition ratio (%).
Where [12] appears, read: concentration 50000.00 nM, read-out: inhibition ratio (%).
[13] abbreviates: concentration 100000.00 nM, read-out: inhibition ratio (%).
Setting [14] is: concentration […], read-out: inhibition ratio (%).

Where “and” joins values, the source holds several entries; their conditions need not be identical. Equal entries are not always repeated. Where two headings read alike, the source gives them in different places.

In the case of `CC/C(=C(\c1ccccc1)c1ccc(OCCN(C)C)cc1)c1ccccc1` [Tamoxifen], the “% of vehicle control” value was 109.51% in data set [1] (0.206 μM); 81.38% and 83.81% and 90.39% in data set [1] (5.56 μM); 0.08% and 0.0644% and 0.0757% in data set [1] (16.67 μM); 0.06% and 0.05% in data set [1] (50 μM); 0.0474% and 0.03% and 0.04% in data set [1] (150 μM).

Regarding `CC(C)(C)[C@H](NS(C)(=O)=O)C(=O)N1CC2(C[C@H]1C(=O)N[C@H](C#N)C[C@@H]1CCNC1=O)SCCS2` [compound 11], the inhibition at 0.01563 µM on SARS-CoV-2 3CL^pro [2] (setting [5]) amounted to 54%. In addition, the inhibition at 0.03125 µM on SARS-CoV-2 3CL^pro [2] (setting [6]) is 73.9%. For the same compound, the inhibition at 0.5 µM at SARS-CoV-2 3CL^pro [2] (setting [7]) is 94.6%. In the data set on SARS-CoV-2 Delta strain (setting [8]), the EC50 came to 10400 nM. Besides, the CC50 in “in vitro” is greater than 500 µM.

In the case of `CC(C)(C)[C@H](NC(=O)C1(F)CC1)C(=O)N1CC2(C[C@H]1C(=O)N[C@H](C#N)C[C@@H]1CCNC1=O)SCCS2` [compound 10], the inhibition at 0.5 µM at SARS-CoV-2 3CL^pro [2] (setting [7]) amounted to 94%. In the data set with SARS-CoV-2 Delta strain (setting [8]), the EC50 was determined as 1100 nM. Moreover, the CC50 in “in vitro” was greater than 500 µM.

With `CC(C)(C)NC(=O)N[C@H](C(=O)N1CC2(C[C@H]1C(=O)N[C@H](C#N)C[C@@H]1CCNC1=O)SCCS2)C(C)(C)C` [compound 7], on SARS-CoV-2 3CL^pro [2] (setting [9]), the inhibition at 0.01563 µM is 28.1%. In addition, the inhibition at 0.5 µM at SARS-CoV-2 3CL^pro [2] (setting [10]) was 97.8%. The concentration giving a half-maximal response (EC50) was determined as 30000 nM in the data set on SARS-CoV-2 Delta strain (setting [8]) and 220 nM in the data set with SARS-CoV-2 Delta strain (read-out: EC50^CP). Further, the CC50 in “in vitro” is greater than 500 µM.

For `CC(C)(C)[C@H](NC(=O)C(F)(F)F)C(=O)N1C[C@H]2[C@@H]([C@H]1C(=O)N[C@H](C#N)C[C@@H]1CCNC1=O)C2(C)C` [nirmatrelvir, reference compound], the EC50 with SARS-CoV-2 Delta strain (read-out: EC50^CP) was 30 nM.

Regarding `CC(C)(C)NC(=O)N[C@H](C(=O)N1C[C@H]2[C@@H]([C@H]1C(=O)N[C@H](C=O)C[C@@H]1CCNC1=O)C2(C)C)C(C)(C)C` [compound 1], the inhibition at 0.01563 µM at SARS-CoV-2 3CL^pro [2] (setting [9]) was 72.2%. The inhibition at 0.03125 µM at SARS-CoV-2 3CL^pro [2] (setting [11]) was 81.7%. Besides, the inhibition at 1 µM on SARS-CoV-2 3CL^pro [2] (read-out: inhibition ratio (%)) was found to be 99.4%. Also, in data set [3], the “GSHt1/2 (half-life of the electrophile warhead to react with glutathione)” value stood at 1.68 h.

Turning to `CC(C)(C)NC(=O)N[C@H](C(=O)N1C[C@H]2[C@@H]([C@H]1C(=O)NC(CC1CCC1)C(=O)C(N)=O)C2(C)C)C(C)(C)C` (stereo partly drawn) [boceprevir, reference compound], the inhibition at 50 µM at SARS-CoV-2 3CL^pro [2] (50000.00 nM, read-out: inhibition ratio (%)) was determined as 90.9%. Further, the inhibition at 100 µM at SARS-CoV-2 3CL^pro [2] (100000.00 nM, read-out: inhibition ratio (%)) is 97.1%. For the same compound, at SARS-CoV-2 3CL^pro [2] ([…], read-out: inhibition ratio (%)), the inhibition at 25 µM is 82.4%.

With `CC(C)(C)NC(=O)N[C@H](C(=O)N1C[C@@H]2CCC[C@@H]2[C@H]1C(=O)N[C@H](C#N)C[C@@H]1CCNC1=O)C(C)(C)C` [compound 8], the IC50 against SARS-CoV-2 3CL^pro [2] (IC50) is 50 nM; against SARS-CoV-2 3CL^pro [2] (IC50 (nM)), 49.2 nM and 55.8 nM and 45.8 nM. At SARS-CoV-2 3CL^pro [2] (setting [11]), the inhibition at 0.03125 µM is 37.9%. In addition, on SARS-CoV-2 3CL^pro [2] (setting [10]), the inhibition at 0.5 µM worked out at 93.2%.

Regarding `CC(C)(C)NC(=O)N[C@H](C(=O)N1C[C@@H](Sc2ccccc2)C[C@H]1C(=O)N[C@H](C#N)C[C@@H]1CCNC1=O)C(C)(C)C` [compound 6], the 50% inhibitory concentration (IC50) is 7210 nM against SARS-CoV-2 3CL^pro [2] (IC50); 6060 nM and 8400 nM and 7190 nM against SARS-CoV-2 3CL^pro [2] (IC50 (nM)). Besides, the inhibition at 3.125 µM on SARS-CoV-2 3CL^pro [2] (read-out: inhibition ratio (%)) is 22.4%. In addition, the inhibition at 50 µM on SARS-CoV-2 3CL^pro [2] (setting [12]) came to 90.5%. Further, on SARS-CoV-2 3CL^pro [2] (setting [13]), the inhibition at 100 µM came out at 97.7%. Besides, on SARS-CoV-2 3CL^pro [2] (setting [14]), the inhibition at 25 µM came to 81.8%.

On to `CC(=O)/C=C/[C@H](C[C@@H]1CCNC1=O)NC(=O)[C@@H]1[C@@H]2[C@H](CN1C(=O)[C@@H](NC(=O)NC(C)(C)C)C(C)(C)C)C2(C)C` [compound 3], for which the 50% inhibitory concentration (IC50) against SARS-CoV-2 3CL^pro [2] (IC50) is 14 nM; against SARS-CoV-2 3CL^pro [2] (IC50 (nM)), 12 nM and 17 nM and 14 nM. Also, the inhibition at 0.01563 µM on SARS-CoV-2 3CL^pro [2] (setting [9]) was 52.7%. For the same compound, the inhibition at 0.03125 µM on SARS-CoV-2 3CL^pro [2] (setting [11]) turned out to be 85.4%. For the same compound, the inhibition at 0.5 µM on SARS-CoV-2 3CL^pro [2] (setting [10]) amounted to 101%. For the same compound, at SARS-CoV-2 3CL^pro [2] (read-out: inhibition ratio (%)), the inhibition at 1 µM was determined as 99.6%. The “reversibility of SARS-CoV-2 3CLpro inhibition” value at SARS-CoV-2 3CL^pro [4] was “irreversible”. Also, the “GSHt1/2 (half-life of the electrophile warhead to react with glutathione)” value in data set [3] worked out at 0.25 h.

As for `CC(C)(C)NC(=O)N[C@H](C(=O)N1C[C@H]2[C@@H]([C@H]1C(=O)N[C@H](C#N)C[C@@H]1CCNC1=O)C2(C)C)C(C)(C)C` [compound 2], on SARS-CoV-2 3CL^pro [2] (setting [11]), the inhibition at 0.03125 µM turned out to be 59.6%. In addition, at SARS-CoV-2 3CL^pro [2] (setting [10]), the inhibition at 0.5 µM is 100%. Besides, the EC50 with SARS-CoV-2 Delta strain (Severe acute respiratory syndrome coronavirus 2, Vero C1008) stood at 7400 nM; with SARS-CoV-2 Delta strain (Severe acute respiratory syndrome coronavirus 2, Vero C1008, read-out: EC50 (nM), single independent experiment), 5890 nM; with SARS-CoV-2 Delta strain (read-out: EC50^CP), 319 nM. Also, the “GSHt1/2 (half-life of the electrophile warhead to react with glutathione)” value in data set [3] is 16 h. This compound also displayed a CC50 in the data set “in vitro” greater than 500 µM.

Regarding `CC(C)(C)NC(=O)N[C@H](C(=O)N1C[C@@H](c2ccccc2)C[C@H]1C(=O)N[C@H](C#N)C[C@@H]1CCNC1=O)C(C)(C)C` [compound 5], the half-maximal inhibitory concentration (IC50) is 814 nM at SARS-CoV-2 3CL^pro [2] (IC50); 883 nM and 880 nM and 679 nM against SARS-CoV-2 3CL^pro [2] (IC50 (nM)). Further, the inhibition at 5 µM on SARS-CoV-2 3CL^pro [2] (concentration 5000.00 nM, read-out: inhibition ratio (%)) worked out at 91.4%. In addition, at SARS-CoV-2 3CL^pro [2] (concentration 10000.00 nM, read-out: inhibition ratio (%)), the inhibition at 10 µM came out at 94.8%.

Take `CC(C)(C)[C@H](NS(=O)(=O)C1CC1)C(=O)N1CC2(C[C@H]1C(=O)N[C@H](C#N)C[C@@H]1CCNC1=O)SCCS2` [compound 12]: the inhibition at 0.01563 µM on SARS-CoV-2 3CL^pro [2] (setting [5]) was found to be 72.8%. Besides, on SARS-CoV-2 3CL^pro [2] (setting [6]), the inhibition at 0.03125 µM was 86.6%. At SARS-CoV-2 3CL^pro [2] (setting [7]), the inhibition at 0.5 µM was 97.9%. The 50% effective concentration (EC50) with SARS-CoV-2 Delta strain (setting [8]) worked out at 10700 nM. In addition, the CC50 in “in vitro” was greater than 500 µM.

Consider `CC(C)(C)NC(=O)N[C@H](C(=O)N1CC[C@@H](Oc2ccccc2)[C@H]1C(=O)N[C@H](C#N)C[C@@H]1CCNC1=O)C(C)(C)C` [compound 4], for which the IC50 was 6940 nM on SARS-CoV-2 3CL^pro [2] (IC50); 7170 nM and 7720 nM and 5940 nM on SARS-CoV-2 3CL^pro [2] (IC50 (nM)). At SARS-CoV-2 3CL^pro [2] (read-out: inhibition ratio (%)), the inhibition at 3.125 µM came out at 31.2%. Besides, on SARS-CoV-2 3CL^pro [2] (setting [12]), the inhibition at 50 µM worked out at 91.2%. Also, the inhibition at 100 µM on SARS-CoV-2 3CL^pro [2] (setting [13]) came to 96.8%. In addition, the inhibition at 25 µM at SARS-CoV-2 3CL^pro [2] (setting [14]) worked out at 86%.
